Laboratory results from publication PMC6930223 (Scientific Reports, 2019).

Target: hERG1a/1b current (Homo sapiens, UniProt Q12809)
Description: All working solutions were sterile-filtered, stored at −20 °C and thawed to room temperature before use.
Prior to electrophysiology study, the HEK293-hERG1a/1b cells were first grown in complete medium without selection antibiotics for 6 days. Approximately 5.0 × 10^5 cells were then plated onto an uncoated 96-mm cell culture dish for a maximum of 3 days. […] The cell suspension was then transferred into a 15-ml polypropylene tube and centrifuged at 100 × g for 3 min. Subsequently, the cell pellet was resuspended in extracellular solution to obtain a final density of 2 × 10^6–3 × 10^6 cells/ml and incubated on ice for 20 min to allow cell recovery. The electrophysiology studies were performed using NPC®-1 chips (Nanion Technologies, Germany) and Port-a-Patch system (Nanion Technologies, Germany) following manufacturer’s instructions, within the next 2 h. For characterization and determination of the hERG1a/1b current inhibition, a series of voltage protocols were applied as published previously.
The hERG1a/1b current was recorded in cells achieving whole-cell configuration. Briefly, a single cell was first held at −80 mV, the theoretical cardiac resting membrane potential, on the aperture of the NPC-1 chip (Nanion Technologies, Germany). To characterize the I-V relationship, the cell was depolarized to test potentials ranging from −60 mV to +50 mV for 4 s in […], followed by a 5-s step to −50 mV before returning to −80mV.
To determine the pharmacological effects of the HEK293-hERG1a/1b cells, the cells were perfused with test compound solutions using an external perfusion system. […] The mean of six successive Itail was recorded for each test concentration. Four independent experiments were conducted to derive the dose-response curve.

Q: How did the “Hill coefficient (h)” value turn out when `CNCCC(Oc1ccc(C(F)(F)F)cc1)c1ccccc1` (stereo not shown) [fluoxetine, reference compound] was run?
A: Its value is 1.19.
